Data: PMC8876412 (Viruses, 2022)
Entries after “also recorded” stand apart in the source; their conditions may differ.

Key:
[1] = system: Western Equine Encephalitis Virus (WEEV); conditions: cultured human neuronal cells; cited from earlier work
[2] = system: pp28-luciferase recombinant Towne CMV; experiment: microbe, parasite or virus in culture; conditions: Human betaherpesvirus 5, read-out: EC50 pp28-Luciferase
[3] = system: MCMV Smith strain; experiment: microbe, parasite or virus in culture; assay type: cell-based; conditions: Mouse cytomegalovirus, Fibroblast, read-out: EC50 MCMV
[4] = MTT toxicity assay in non-infected cells; assay type: cell-based; conditions: human, non-infected HFF cells, non-infected HFFs
[5] = system: CMV TB40; experiment: Virus yield: supernatants of TB40-infected HFFs titered by plaque assay; assay type: cell-based, human cytomegalovirus; conditions: supernatants at 72, 96, 120 h; for reduction in viral titer (virus yield) of supernatants: 3 µM
[6] = system: CMV TB40; experiment: microbe, parasite or virus in culture; assay type: cell-based, human cytomegalovirus; conditions: Human betaherpesvirus 5, 168 h, read-out: EC50 TB40
[7] = system: CMV TB40 (US17 DNA); experiment: Viral DNA in cells and supernatants by US17 real-time PCR; assay type: cell-based, human cytomegalovirus; conditions: for cellular viral loads (viral DNA replication in cells): 72, 96, 120 h
[8] = system: pp28-luciferase recombinant Towne CMV; conditions: CC50 in non-infected HFFs versus anti-CMV EC50
[9] = system: HSV1; experiment: HSV1 plaque assay in Vero cells; assay type: cell-based, Human Herpesvirus 1; conditions: 5 µM, positive control
[10] = system: HSV2; experiment: HSV2 plaque assay in Vero cells; assay type: cell-based, Human Herpesvirus 2; conditions: 5 µM, positive control
[11] = system: CMV TB40; set-up: method as in ref 24 = [24]; conditions: cited from earlier work
[12] = system: HSV2; set-up: method as in ref 24 = [24]; conditions: cited from earlier work
[13] = system: HSV1; set-up: method as in ref 24 = [24]; conditions: cited from earlier work
[14] = system: MCMV Smith strain; set-up: method as in ref 24 = [24]; conditions: cited from earlier work
[15] = system: CMV; set-up: method as in ref 23 = [23]; conditions: cited from earlier work

## O=C(NCCc1ccncc1)C1CCN(C(=O)c2cc3ccccc3n2Cc2ccc(Cl)cc2)CC1 [CCG205432]
[1]
  inhibition of infectious virus: inhibited the infectious virus

## CC(C)NC(=O)C1CCN(C(=O)c2cc3ccccc3n2Cc2ccc(Cl)cc2)CC1 [Compound 3]
[2]
  EC50: > 30000 nM

## O=C(O)C1CCN(C(=O)c2cccn2Cc2ccc(Cl)cc2)CC1 [Compound 13]
[2]
  EC50: > 30000 nM

## O=C(NCc1ccccn1)C1CCN(C(=O)c2cccn2Cc2ccc(Cl)cc2)CC1 [Compound 10]
[2]
  EC50: > 30000 nM

## O=C(NCCc1ccncc1)C1CCN(C(=O)c2cc3ccccc3n2Cc2ccc(Cl)cc2)CC1 [Compound 8]
[3]
  EC50: 730 ± 320 nM
[4]
  CC50 at 72 h: > 500000 nM
[5]
  reduction in viral titer (virus yield) of supernatants: higher than with 1 and overall similar to GCV
[6]
  EC50: 420 ± 70 nM
[7]; 3 µM, 72, 96, 120 hpi
  viral loads in supernatants: decreased viral loads at 120 hpi
[7]; 3 µM
  cellular viral loads (viral DNA replication in cells): did not reduce
[8]
  selectivity index: > 1500
[2]
  EC50: 280 ± 60 nM

## Nc1nc(O)c2ncn(COC(CO)CO)c2n1 [GCV, ganciclovir, reference compound]
[7]; 5 µM
  viral DNA in supernatants: reduced DNA replication
  viral DNA replication in cells: reduced DNA replication
[9]
  inhibition of HSV1: complete inhibition
[10]
  inhibition of HSV2: complete inhibition

## O=C(NCCc1ccncc1)C1CCN(C(=O)c2cccn2Cc2ccc(Cl)cc2)CC1 [Compound 7]
[3]
  EC50: 600 ± 340 nM
[4]
  CC50 at 72 h: > 500000 nM
[5]
  reduction in viral titer (virus yield) of supernatants: reduced virus yield at all late time points; also recorded: higher than with 1 and overall similar to GCV
[6]
  EC50: 550 ± 60 nM
[7]; 3 µM, 72, 96, 120 hpi
  viral loads in supernatants: decreased the viral loads in supernatants at all time points
[7]; 3 µM
  cellular viral loads (viral DNA replication in cells): did not reduce
[8]
  selectivity index: > 1500
[2]
  EC50: 210 ± 60 nM

## O=C(NCc1cccnc1)C1CCN(C(=O)c2cccn2Cc2ccc(Cl)cc2)CC1 [Compound 11]
[2]
  EC50: > 30000 nM

## CC(C)NC(=O)C1CCCN(C(=O)c2cc3sccc3n2Cc2ccc(Cl)cc2)C1 (centres unmarked) [Compound 2]
[2]
  EC50: > 30000 nM

## O=C(NCCc1cccnc1)C1CCN(C(=O)c2cccn2Cc2ccc(Cl)cc2)CC1 [Compound 6]
[2]
  EC50: > 30000 nM

## O=C(NCCc1ccccn1)C1CCN(C(=O)c2cccn2Cc2ccc(Cl)cc2)CC1 [Compound 5]
[2]
  EC50: > 30000 nM

## CCOC(=O)C1CCN(C(=O)c2cccn2Cc2ccc(Cl)cc2)CC1 [Compound 14]
[2]
  EC50: > 30000 nM

## COc1cccc(N2CCN(C3=Nc4c(F)cccc4[C@H](CC(=O)O)N3c3cc(C(F)(F)F)ccc3OC)CC2)c1 [Letermovir, reference compound]
[5]; 10 nM
  reduction in viral progeny of supernatants: strongest reduction in viral progeny at all time points
[7]; 10 nM
  viral loads in supernatants: reduced viral loads in supernatants

## O=C(NCc1ccncc1)C1CCN(C(=O)c2cccn2Cc2ccc(Cl)cc2)CC1 [Compound 12]
[2]
  EC50: > 30000 nM

## CC(C)NC(=O)C1CCN(C(=O)c2cccn2Cc2ccc(Cl)cc2)CC1 [Compound 4]
[2]
  EC50: > 30000 nM

## O=C(NCCc1ccncc1)C1CCN(C(=O)c2cc3sccc3n2Cc2ccc(Cl)cc2)CC1 [Compound 9]
[4]
  CC50 at 72 h: > 500000 nM
[6]
  EC50: 350 ± 70 nM
[8]
  selectivity index: > 1500
[2]
  EC50: 300 ± 50 nM

## CC(C)NC(=O)C1CCN(C(=O)c2cc3sccc3n2Cc2ccc(Cl)cc2)CC1 [Compound 1]
[4]
  CC50 at 72 h: > 200000 nM
[11]
  in vitro activity against TB40: low µM concentrations
[6]
  EC50: 1990 ± 150 nM
[12]
  activity against HSV2: no activity
[7]; 3 µM
  cellular viral loads (viral DNA replication in cells): did not reduce
[13]
  activity against HSV1: no activity
[14]
  in vitro activity against mouse CMV: low µM concentrations
[2]
  EC50: 1700 ± 600 nM

## CC(C)Nc1nc2cc(Cl)c(Cl)cc2n1[C@H]1O[C@@H](CO)[C@H](O)[C@@H]1O [maribavir, Maribavir]
[15]; across all doses
  response: ~ 65%
[15]; of the participants
  CMV recurrences: 35%
